# Reference: patent publication US8163702B2, “Treatment of melanoma” (SciClone Pharmaceuticals, Inc., priority 2006, dated 2012)
# Experiments:
# spleen lymphocytes = conditions: cited from earlier work
# T helper cells = conditions: previous studies; cited from earlier work
# [1] = 5-FU-immune-suppressed animals; immunization with sheep red blood cells; cited from earlier work
# B16 melanoma = B16 melanoma tumor growth, tumor weight and survival in C57/Bl6 mice, i.p. treatment (Example 1); type: in vivo; conditions: for animals surviving: After 26 days
# Description: Tumors were induced by injecting 1×10^6 B16 melanoma cells subcutaneously in the hind leg of C57/Bl6 syngeneic mice. Mice were randomized into 5 groups of 10 animals and treated with SCV-07 at doses of 0.001, 0.01, or 0.10 mg/kg administered daily i.p. for 3 consecutive days for 2 weeks, starting 3 days after tumor implantation. Control groups were treated with saline or dacarbazine (DTIC) at a dose of 50 mg/kg i.p. for 3 days. Tumor growth was assessed every 3 days by a caliper and tumor weight was measured upon death.
# Mice were injected with B16 melanoma cells and divided into 5 groups of 10 mice each. Control mice were given injections of saline or dacarbazine (DTIC). The effects of different doses of SCV-07 were examined with respect to tumor growth rate and survival time.
# thymocyte and lymphocyte = conditions: cited from earlier work
structure (smiles),measurement,setting,value
"N[C@H](CCC(=O)N[C@@H](Cc1c[nH]c2ccccc12)C(=O)O)C(=O)O [SCV-07, γ-D-glutamyl-L-tryptophan]",Con-A-induced interleukin-2 (IL-2) production and IL-2 receptor expression,spleen lymphocytes,increases
same,IFN-γ production by thymic and spleen cells and circulating level in serum,T helper cells,increased
same,T helper cell polarization,T helper cells,stimulates a shift of T helper cells towards a TH1-like immune response
same,immunostimulatory effect,[1],strong immunostimulatory effect
same,animals surviving,B16 melanoma; SCV-07 highest dose (0.10 mg/kg i.p.),21%
same,animals surviving,B16 melanoma; SCV-07 lower doses,no surviving animals
same,MEAN TUMOR VOLUME,"B16 melanoma; DAY 10 after tumor inoculation, SCV-07 0.001 mg/kg i.p.",540 ± 180 mm^3
same,MEAN TUMOR VOLUME,"B16 melanoma; DAY 10 after tumor inoculation, SCV-07 0.01 mg/kg i.p.",490 ± 120 mm^3
same,MEAN TUMOR VOLUME,"B16 melanoma; DAY 10 after tumor inoculation, SCV-07 0.10 mg/kg i.p.",420 ± 150 mm^3
same,MEAN TUMOR VOLUME,"B16 melanoma; DAY 17 after tumor inoculation, SCV-07 0.001 mg/kg i.p.",625 ± 270 mm^3
same,MEAN TUMOR VOLUME,"B16 melanoma; DAY 17 after tumor inoculation, SCV-07 0.01 mg/kg i.p.",581 ± 210 mm^3
same,MEAN TUMOR VOLUME,"B16 melanoma; DAY 17 after tumor inoculation, SCV-07 0.10 mg/kg i.p.",495 ± 190 mm^3
same,MEAN TUMOR VOLUME,"B16 melanoma; DAY 24 after tumor inoculation, SCV-07 0.001 mg/kg i.p.",880 ± 240 mm^3
same,MEAN TUMOR VOLUME,"B16 melanoma; DAY 24 after tumor inoculation, SCV-07 0.01 mg/kg i.p.",720 ± 150 mm^3
same,MEAN TUMOR VOLUME,"B16 melanoma; DAY 24 after tumor inoculation, SCV-07 0.10 mg/kg i.p.",533 ± 170 mm^3
same,tumor growth,"B16 melanoma; SCV-07 0.001, 0.01, 0.10 mg/kg i.p.",inhibited tumor growth in a dose-dependent manner
same,mean tumor weight lower,"B16 melanoma; highest dose of SCV-07 (0.10 mg/kg i.p.), weight upon death",35%
same,mean tumor weight lower,"B16 melanoma; lower doses of SCV-07 (0.001, 0.01 mg/kg i.p.)",20%
same,Con-A-induced thymocyte and lymphocyte proliferation,thymocyte and lymphocyte,increases
